Values after ≈ are worked out from the molar mass of the structure shown. Where two headings read alike, the source gives them in different places. Residues, ends and D or L forms follow the SMILES beside them.
B1: endostatin: Recombinant human endostatin, SEQ ID NO: 1, commercially available (protein, listed as Homo sapiens)
chain: HSHRDFQPVLHLVALNSPLSGGMRGIRGADFQCFQQARAVGLAGTFRAFLSSRLQDLYSIVRRADRAAVPIVNLKDELLFPSWEALFSGSEGPLKPGARIFSFDGKDVLRHPTWPQKSVWHGSDPNGRRLTESYCETWRTEAPSATGQASSLLGGRLLGQSAASCHHAYIVLCIENSFMTASK
B2: endostar: marketed recombinant human endostatin drug, SEQ ID NO: 10 (protein)
chain: MGGSHHHHHHSHRDFQPVLHLVALNAPLSGGMRGIRGADFQCFQQARAVGLAGTFRAFLSSRLQDLYSIVRRADRAAVPIVNLKDELLFPSWEALFSGSEGPLKPGARIFSFDGKDVLRHPTWPQKSVWHGSDPNGRRLTESYCETWRTEAPSATGQASSLLGGRLLGQSAASCHHAYIVLCIENSFMTASK
modifications: Recombinant human endostatin drug, endostar

What was measured:
[1] = tested on: Human Umbilical Vein Endothelial Cell (HUVEC); type: cell-based; conditions: for biological activity compared with P2: inhibition of HUVEC and HepG2
Experimental: 20 cm umbilical cord adjacent to fetus was taken, cleaned by washing, ligated at both ends, placed into 150 ml preservation solutions for umbilical cord, and stored in a 4° C. refrigerator for digestion for 6 hours. The umbilical cord was inspected to remove the damaged portion. The umbilical vein was thoroughly cleaned by washing and then 10 ml collagenase solution was injected. Then the umbilical vein was transferred to a 37° C. incubator for digestion for 15 minutes. The umbilical cord was removed and the digested solution was recovered. The digested solution was washed by PBS and centrifuged. After centrifugation, the cells were culture by re-suspension.
(§1) Inhibition of cell growth was detected by a MTT method, which is based on the principle that succinate dehydrogenase in the mitochondria of the live cells could reduce the exogenous MTT (3-(4,5-dimethyl-2-thiazolyl)-2,5-diphenyl-tetrazolium bromide) to a […] Formazan which is a blue-violet crystal, and precipitates in the cells, while the death cells could not reduce MTT. DMSO could dissolve Formazan in the cells. Absorbance value of the solution was determined at 490/570 nm by microplate reader, which could indirectly indicate the amount of the live cells. The amount of the crystal from MTT is proportional to the amount of the cells within a certain range of cell number. The supernate from the HUVEC or tumor cells in exponential phase was removed and the cells were washed by PBS once. 1 ml 0.25% trypsin (4° C.) was added for digestion at 37° C. for 2 min. Then the supernate was added for neutralization and the cells were dispersed to form a suspension and the suspension was centrifuged at 1000 rpm for 3 min. The supernate was removed and 5 ml culture mediums were added for resuspension. Cells were inoculated in a 48-well plate by 500 ul/well at the concentration of 3×10^4/ml and then incubated under 5% CO2, 37° C. for 24 hours. The supernate was removed and a culture medium containing polypeptide (Zn^2+ in the culture medium was present at the concentration of 17.39 μmol/L) was added for further incubation for 48 hours. Supernate in each well was carefully removed. The well was gently washed by PBS once in an amount of 450 μl/well. 450 μl MTT culture mediums were added into each well for further cultivation for 4 hours. The supernate was carefully discarded. DMSO was added in an amount of 450 μl/well and then the plate was placed in a shaking bed for oscillation for 10 min in dark. 150 μl supernates were transferred to a 96-well ELISA plate and absorbance value of each well was detected at 490 nm and 570 nm by the microplate reader.

[2] = tested on: tumor cell HepG2; type: cell-based
Experimental: as §1

[3] = tested on: Human liver cancer BEL7404 tumor model; type: in vivo; conditions: for Tumor inhibitor rate (%): BEL7404, day 21, polypeptides 15 mg/kg sc 2 times per day 21 days, endostatin/endostar 50 mg/kg sc, CTX 30 mg/kg ip 7 days
Experimental: In vitro cultured tumor cells in exponential phase and in good state were formulated to a 100 μl cell suspension containing 5×10^6 tumor cells. The suspension was subcutaneously inoculated to nude mice. Well-grown solid tumors were obtained 15 days later and cut into uniform pieces of about 3 mm under sterile condition. Each nude mouse was inoculated by one piece through a trocar. Mice were re-grouped according the tumor size 10-14 days after inoculation and animals having too large and too small tumor were excluded from the test. The average tumor volume for each group was basically identical. Test drugs were administered to each group according to the experimental protocol. The major axis (a) and minor axis (b) of the tumor were measured twice a week. Animals were sacrificed at the end of the test. The tumor was taken out, weighed and photos were taken. Tumor volume (TV)=½×a×b^2; Relative tumor volume (RTV)=Vt/Vo, wherein Vo is the tumor volume measured before grouping (one day before administration of the test drug), and Vt is the tumor volume measured at each time. Tumor inhibition rate (%)=(1−T/C)×100%, wherein T is the average tumor volume of the treatment group and C is the average tumor volume of the negative control group.
The amino acid sequence of recombination endostatin (“endostatin”) was set forth in SEQ ID NO: 1, and the amino acid sequence of the marketed drug Endostar (“endostar”) was set forth in SEQ ID NO: 10. Human liver cancer BEL7404 tumor model was constructed according to the method described in Example 10. The test contained 6 groups, with 6 animals in each group, except for the negative control group which contained 9 animals. The molar dose of the polypeptides was basically equal to the molar dose of endostatin. The results are shown in FIGS. 11a and 11b and the following Table.

Molecule | IC50 (ug/ml) HUVEC [1] [µg/mL] | Cell Survival (%), 1 mg/ml of polypeptide, HUVEC [1] [%] | biological activity compared with P2 [1] | IC50 (ug/ml) HepG2 [2] [µg/mL] | Cell Survival (%), 1 mg/ml of polypeptide, HepG2 [2]; 1 [%] | Tumor inhibitor rate (%) [3] [%] | toxic reaction ([3]; BEL7404 model, same regimens) | Cell Survival (%), 1 mg/ml of polypeptide, HepG2 ([2]; 1 mg/ml) [%]
CC[C@H](C)[C@H](NC(=O)CNC(=O)[C@H](CCCNC(=N)N)NC(=O)[C@H](CCSC)NC(=O)CNC(=O)CNC(=O)[C@H](CO)NC(=O)[C@H](CC(C)C)NC(=O)[C@H](CC(N)=O)NC(=O)[C@H](CO)NC(=O)[C@H](CC(N)=O)NC(=O)[C@H](CC(C)C)NC(=O)[C@H](C)NC(=O)[C@@H](NC(=O)[C@H](CC(C)C)NC(=O)[C@H](Cc1c[nH]cn1)NC(=O)[C@H](CC(C)C)NC(=O)[C@@H](NC(=O)[C@@H]1CCCN1C(=O)[C@H](CCC(N)=O)NC(=O)[C@H](Cc1ccccc1)NC(=O)[C@H](CC(=O)O)NC(=O)[C@H](CCCNC(=N)N)NC(=O)[C@H](Cc1c[nH]cn1)NC(=O)[C@H](CO)NC(=O)[C@H](Cc1c[nH]cn1)NC(C)=O)C(C)C)C(C)C)C(=O)N[C@@H](CCCNC(=N)N)C(=O)NCC(=O)N[C@@H](C)C(=O)N[C@@H](CC(=O)O)C(N)=O [Polypeptide P2N18] (Ac-HSHRDFQPVLHLVALNSNLSGGMRGIRGAD-NH2) | 1080.8 (≈ 328 µM) | 91 | lower biological activity than P2 | 1387.0 (≈ 421 µM) | 85 |  |  | 
O=P1(N(CCCl)CCCl)NCCCO1 (centres unmarked) [CTX, Cyclophosphamide, reference compound] |  |  |  |  |  | 68.0 | typical chemotherapeutic toxic side effect | 
CC[C@H](C)[C@H](NC(=O)CNC(=O)[C@H](CCCNC(=N)N)NC(=O)[C@H](CCSC)NC(=O)CNC(=O)CNC(=O)[C@H](CO)NC(=O)[C@H](CC(C)C)NC(=O)[C@H](CO)NC(=O)[C@H](CO)NC(=O)[C@H](CC(N)=O)NC(=O)[C@H](CC(C)C)NC(=O)[C@H](C)NC(=O)[C@@H](NC(=O)[C@H](CC(C)C)NC(=O)[C@H](Cc1c[nH]cn1)NC(=O)[C@H](CC(C)C)NC(=O)[C@@H](NC(=O)[C@@H]1CCCN1C(=O)[C@H](CCC(N)=O)NC(=O)[C@H](Cc1ccccc1)NC(=O)[C@H](CC(=O)O)NC(=O)[C@H](CCCNC(=N)N)NC(=O)[C@H](Cc1c[nH]cn1)NC(=O)[C@H](CO)NC(=O)[C@H](Cc1c[nH]cn1)NC(C)=O)C(C)C)C(C)C)C(=O)N[C@@H](CCCNC(=N)N)C(=O)NCC(=O)N[C@@H](C)C(=O)N[C@@H](CC(=O)O)C(N)=O [Polypeptide P2S18] (Ac-HSHRDFQPVLHLVALNSSLSGGMRGIRGAD-NH2) |  | 73 | lower biological activity than P2 |  | 70 |  |  | 
B1 |  | 70 |  | 2245.4 |  | 41.2 |  | 64
B2 |  | 82 |  |  |  | 28.5 |  | 91
